Measurements reported in paper doi:10.1101/2021.10.07.463234v2 (biorxiv, 2021).
Where a name gives a salt, the structure may show the parent alone. Numbered stars: 1 amine (or outer) side, 2 acyl side, 3 side chain; on linkers, the order of the positions; unused ones are H or OH. Bridge positions count the residues as written; N and C are the ends. Square brackets hold non-standard residues; d marks the D form. Peptide text beside a SMILES is read from it. * marks the point of attachment. hTyr(3S-OH,4S-OH,3'-OSO3H) = N[C@H](C(=O)O)[C@H](O)[C@@H](O)c1ccc(O)c(OS(=O)(=O)O)c1; Orn(4R-OH,5R-OH) = O=C([C@H](C[C@@H](O)[C@@H](O)N[*:3])N[*:1])[*:2]; Pro(3S-OH,4S-Me) = C[C@H]1CN[C@H](C(=O)O)[C@H]1O; X1 = CCCCCOc1ccc(-c2cc(-c3ccc(C(=O)*)cc3)no2)cc1; Gln(3R-OH) = NC(=O)C[C@@H](O)[C@H](N)C(=O)O; Hyp = O=C(O)[C@@H]1C[C@@H](O)CN1

Target: SARS-CoV-2 Mac1 (Severe acute respiratory syndrome coronavirus 2, UniProt P0DTD1)
Assay: biochemical
Conditions: 100 µM; inhibitor

SMILES	%inhibition
Cc1cccc(C)c1NC(=O)C1CCCCN1C (stereo not shown) [Mepivacaine HCl]	2.617%
Cc1cccc(C)c1NC(=O)C1CCCCN1C (stereo not shown) [Mepivacaine]	0%
C[C@@H](O)[C@H]1C(=O)N2C(C(=O)O)=C(S[C@@H]3CN[C@H](C(=O)N(C)C)C3)[C@H](C)[C@H]12 [Meropenem Trihydrate]	21.42%
C[C@@H](O)[C@H]1C(=O)N2C(C(=O)O)=C(S[C@@H]3CN[C@H](C(=O)N(C)C)C3)[C@H](C)[C@H]12 [Meropenem]	0%
CN(Cc1cnc2nc(N)nc(N)c2n1)c1ccc(C(=O)N[C@@H](CCC(=O)O)C(=O)O)cc1 [Methotrexate disodium]	0%
CN(Cc1cnc2nc(N)nc(N)c2n1)c1ccc(C(=O)N[C@@H](CCC(=O)O)C(=O)O)cc1 [Methotrexate]	59.68%
COCCc1ccc(OCC(O)CNC(C)C)cc1 (stereo not shown) [Metoprolol Tartrate]	45.82%
COCCc1ccc(OCC(O)CNC(C)C)cc1 (stereo not shown) [Metoprolol succinate]	1.216%
COCCc1ccc(OCC(O)CNC(C)C)cc1 (stereo not shown) [Metoprolol]	3.241%
COc1c(N2C[C@@H]3CCCN[C@@H]3C2)c(F)cc2c(=O)c(C(=O)O)cn(C3CC3)c12 [Moxifloxacin HCl]	0%
COc1c(N2C[C@@H]3CCCN[C@@H]3C2)c(F)cc2c(=O)c(C(=O)O)cn(C3CC3)c12 [Moxifloxacin]	6.66%

Same assay, conditions: read-out: %inhibition

SMILES	inhibition at 100 µM
C[N+]1(C)CCCC(OC(=O)C(O)(c2ccccc2)c2ccccc2)C1 (stereo not shown) [Mepenzolate Bromide]	0%
Cc1ccccc1OCC(O)CO (stereo not shown) [Mephenesin]	7.81%
[O-][n+]1cccc(CO)c1 [Mepiroxol]	12.3%
C[C@H]1C[C@H]2[C@@H]3CCC4=CC(=O)C=C[C@]4(C)[C@H]3C(=O)C[C@]2(C)[C@@]1(O)C(=O)CO [Meprednisone]	8.14%
CCC1(c2cccc(O)c2)CCCCN(C)C1 (stereo not shown) [Meptazinol HCl]	0%
COc1ccc(O)cc1 [Mequinol]	0%
S=c1[nH]cnc2nc[nH]c12 [Mercaptopurine (6-MP)]	19.8%
Nc1ccc(O)c(C(=O)O)c1 [Mesalamine]	0%
O=S(=O)(O)CCS [Mesna]	24.6%
CN1CCCCC1CCN1c2ccccc2Sc2ccc([S+](C)[O-])cc21 (stereo not shown) [Mesoridazine Besylate]	6.43%
C#C[C@]1(O)CC[C@H]2[C@@H]3CCc4cc(OC)ccc4[C@H]3CC[C@@]21C [Mestranol]	0%
CC(C)NCC(O)c1cc(O)cc(O)c1 (stereo not shown) [Metaproterenol Sulfate]	2.56%
C[C@H](N)[C@H](O)c1cccc(O)c1 [Metaraminol Bitartrate]	8.05%
Cc1cc(C)cc(OCC2CNC(=O)O2)c1 (stereo not shown) [Metaxalone]	0%
CN(C)C(=N)NC(=N)N [Metformin HCl]	32.6%
CC(=O)OC(C)C[N+](C)(C)C (stereo not shown) [Methacholine chloride]	8.52%
C=C1c2cccc(O)c2C(=O)C2=C(O)[C@]3(O)C(=O)C(C(N)=O)=C(O)[C@@H](N(C)C)[C@@H]3[C@@H](O)[C@H]12 [Methacycline HCl]	0%
CC(=O)/N=c1/sc(S(N)(=O)=O)nn1C [Methazolamide]	0%
C1N2CN3CN1CN(C2)C3 [Methenamine]	1.76%
Cn1ccnc1S [Methimazole]	0%
COc1ccccc1OCC(O)COC(N)=O (stereo not shown) [Methocarbamol]	36.3%
COc1c2occc2cc2ccc(=O)oc12 [Methoxsalen]	14.7%
CNC(C)Cc1ccccc1OC (stereo not shown) [Methoxyphenamine Hydrochloride]	0%

SMILES	inhibition at 100 µM
C[N+]1(C)[C@@H]2C[C@@H](OC(=O)[C@H](CO)c3ccccc3)C[C@H]1[C@@H]1O[C@@H]12 [Methscopolamine]	0%
CN1C(CCl)Nc2cc(Cl)c(S(N)(=O)=O)cc2S1(=O)=O (stereo not shown) [Methyclothiazide]	0%
COC(=O)CCC(=O)CN [Methyl Aminolevulinate Hydrochloride]	3.98%
COC(=O)c1ccccc1O [Methyl salicylate]	7.14%
CC[N+](C)(CC)CCOC(=O)C(O)(c1ccccc1)c1ccccc1 [Methylbenactyzine Bromide]	9.38%
C[C@](N)(Cc1ccc(O)c(O)c1)C(=O)O [Methyldopa]	8.62%
CN(C)c1ccc2nc3ccc(=[N+](C)C)cc-3sc2c1 [Methylene Blue]	43.3%
C[C@H]1C[C@@H]2[C@H]([C@@H](O)C[C@@]3(C)[C@H]2CC[C@]3(O)C(=O)CO)[C@@]2(C)C=CC(=O)C=C12 [Methylprednisolone]	39.6%
Cc1cc(=O)[nH]c(=S)[nH]1 [Methylthiouracil]	0%
Cc1cc2c(cc1S(N)(=O)=O)S(=O)(=O)CCC2 [Meticrane]	0%
CCN(CC)CCNC(=O)c1cc(Cl)c(N)cc1OC [Metoclopramide HCl]	0%
Cc1ccccc1N1C(=O)c2cc(S(N)(=O)=O)c(Cl)cc2NC1C (stereo not shown) [Metolazone]	0%
Cc1ncc([N+](=O)[O-])n1CCO [Metronidazole]	16.9%
CC(C)(C(=O)c1cccnc1)c1cccnc1 [Metyrapone]	5.33%
CC[C@H](C)C(=O)O[C@H]1CCC=C2C=C[C@H](C)[C@H](CC[C@@H]3C[C@@H](O)CC(=O)O3)[C@H]21 [Mevastatin]	12.1%
Cc1cccc(C)c1OCC(C)N (stereo not shown) [Mexiletine HCl]	9.05%
CC1(C)S[C@@H]2[C@H](NC(=O)[C@H](NC(=O)N3CCN(S(C)(=O)=O)C3=O)c3ccccc3)C(=O)N2[C@H]1C(=O)O [Mezlocillin Sodium]	6.75%
CCCCCOc1ccc(-c2cc(-c3ccc(C(=O)N[C@H]4C[C@@H](O)[C@@H](O)NC(=O)[C@@H]5[C@@H](O)[C@@H](C)CN5C(=O)[C@H]([C@H](O)CC(N)=O)NC(=O)[C@H]([C@H](O)[C@@H](O)c5ccc(O)c(OS(=O)(=O)O)c5)NC(=O)[C@@H]5C[C@@H](O)CN5C(=O)[C@H]([C@@H](C)O)NC4=O)cc3)no2)cc1 [Micafungin Sodium] (X1-[Orn(4R-OH,5R-OH)]T[Hyp][hTyr(3S-OH,4S-OH,3'-OSO3H)][Gln(3R-OH)][Pro(3S-OH,4S-Me)]; lactam 1-C)	0%
CCC(=O)O[C@@H]1CC(=O)O[C@H](C)C/C=C/C=C/[C@H](O)[C@H](C)C[C@H](CC=O)[C@H](O[C@@H]2O[C@H](C)[C@@H](O[C@H]3C[C@@](C)(O)[C@@H](OC(=O)CC)[C@H](C)O3)[C@H](N(C)C)[C@H]2O)[C@H]1OC [Midecamycin]	5.18%
CC#C[C@]1(O)CC[C@H]2[C@@H]3CCC4=CC(=O)CCC4=C3[C@@H](c3ccc(N(C)C)cc3)C[C@@]21C [Mifepristone]	8.31%
OCCN1C[C@H](O)[C@@H](O)[C@H](O)[C@H]1CO [Miglitol]	11%
Cc1[nH]c(=O)c(C#N)cc1-c1ccncc1 [Milrinone]	0%
CCCCCCCCCCCCCCCCOP(=O)([O-])OCC[N+](C)(C)C [Miltefosine]	0%

SMILES	inhibition at 100 µM
Cc1cc(-c2ccccc2)nnc1NCCN1CCOCC1 [Minaprine dihydrochloride]	2.13%
CN(C)c1ccc(O)c2c1C[C@H]1C[C@H]3[C@H](N(C)C)C(O)=C(C(N)=O)C(=O)[C@@]3(O)C(O)=C1C2=O [Minocycline HCl]	0%
Nc1cc(N2CCCCC2)nc(N)[n+]1OS(=O)(=O)[O-] [Minoxidil sulphate]	19%
Nc1nc(CC(=O)Nc2ccc(CCNC[C@H](O)c3ccccc3)cc2)cs1 [Mirabegron]	0%
CN1CCN2c3ncccc3Cc3ccccc3C2C1 (stereo not shown) [Mirtazapine]	7.99%
CO[C@@]12[C@H](COC(N)=O)C3=C(C(=O)C(C)=C(N)C3=O)N1C[C@@H]1N[C@@H]12 [Mitomycin C]	10.1%
Clc1ccc(C(c2ccccc2Cl)C(Cl)Cl)cc1 (stereo not shown) [Mitotane]	46.2%
O=C1c2c(O)ccc(O)c2C(=O)c2c(NCCNCCO)ccc(NCCNCCO)c21 [Mitoxantrone 2HCl]	74.8%
NC(=O)c1ncn([C@@H]2O[C@H](CO)[C@@H](O)[C@H]2O)c1O [Mizoribine]	0%
Nc1ccccc1NC(=O)c1ccc(CNc2nccc(-c3cccnc3)n2)cc1 [Mocetinostat (MGCD0103)]	7.18%
O=C(NCCN1CCOCC1)c1ccc(Cl)cc1 [Moclobemide (Ro 111163)]	0%
CCOC(=O)[C@H](CCc1ccccc1)N[C@@H](C)C(=O)N1Cc2cc(OC)c(OC)cc2C[C@H]1C(=O)O [Moexipril HCl]	0%
CCOC(=O)CC(=O)N1CCSC1COc1ccccc1OC (stereo not shown) [Moguisteine]	13%
O=c1c(-n2ccnn2)c[nH]n1-c1cc(N2CCOCC2)ncn1 [Molidustat (BAY 85-3934)]	19.3%
CCc1c(C)[nH]c2c1C(=O)C(CN1CCOCC1)CC2 (stereo not shown) [Molindone hydrochloride]	0%
CCOC(=O)[N-]c1c[n+](N2CCOCC2)no1 [Molsidomine]	0%
C[C@@H]1C[C@H]2[C@@H]3CCC4=CC(=O)C=C[C@]4(C)[C@@]3(Cl)[C@@H](O)C[C@]2(C)[C@@]1(OC(=O)c1ccco1)C(=O)CCl [Mometasone furoate]	7.49%
Oc1ccc(OCc2ccccc2)cc1 [Monobenzone]	0%
N=C(N)NC(=N)N1CCOCC1 [Moroxydine HCl]	0.197%
CCOc1cc(N)c(Cl)cc1C(=O)NCC1CN(Cc2ccc(F)cc2)CCO1 (stereo not shown) [Mosapride]	0%
CCCN(CCC)C(=O)C1=Cc2ccc(-c3ccc(C(=O)N4CCCC4)cc3)cc2N=C(N)C1 [Motolimod (VTX-2337)]	0%
CO/N=C1\C[C@]2(C[C@@H]3C[C@@H](C/C=C(\C)C[C@@H](C)/C=C/C=C4\CO[C@@H]5[C@H](O)C(C)=C[C@@H](C(=O)O3)[C@]45O)O2)O[C@H](/C(C)=C/C(C)C)[C@H]1C [Moxidectin]	7.63%
